Test results from ChEMBL document CHEMBL5550220, “Discovering New Metallo-Deubiquitinase CSN5 Inhibitors by a Non-Catalytic Activity Assay Platform” (J Med Chem, 2024).
Calls of active or inactive are those of the source. The calls are words filed in the database; no cut-off is given here.

Each compound was assayed on HCT-116 (assay: Antiproliferative activity against human HCT-116 cells assessed as inhibition of cell proliferation measured after 3 days by MTT assay). Details: HCT-116, 72 h.
Format: functional, cell-based

Row | Compound | IC50 [µM]
1 | O=C1C=CC(=O)c2c(O)ccc(O)c21 [NAPHTHAZALIN] | 1.04
2 | CC(C)c1ccc(CC(C)c2sc(N)nc2C(=O)O)cc1 (stereo not drawn) | 16.3
3 | CC(=O)O[C@H](CC=C(C)C)C1=CC(=O)c2c(O)ccc(O)c2C1=O [ACETYLSHIKONIN] | 3.56
4 | Nc1nc(C(=O)O)c(CCc2cccc3ccccc23)s1 | 17.7

These compounds were tested on A-375 (assay: Antiproliferative activity against human A-375 cells assessed as inhibition of cell proliferation measured after 3 days by MTT assay). Details: A-375, 72 h.
Format: functional, cell-based

Row | Compound | IC50 [µM]
5 | O=C1C=CC(=O)c2c(O)ccc(O)c21 [NAPHTHAZALIN] | 8.85
6 | CC(=O)O[C@H](CC=C(C)C)C1=CC(=O)c2c(O)ccc(O)c2C1=O [ACETYLSHIKONIN] | 1.91

Each compound was assayed against T1, COP9 signalosome complex subunit 5 (Homo sapiens, UniProt Q92905) (assay: (§1) Inhibition of N-terminal His6-tagged CSN5 (2 to 257 residues) (unknown origin) transfected in Transetta cells preincubated for 20 mins followed by N-(2-(3-(3',6'-dihydroxy-3-oxo-3H-spiro[isobenzofuran-1,9'-xanthen]-5-yl)thioureido)ethyl)-3-(2-(5-methyl-[1,1'-biphenyl]-2-yl)-1H-pyrrolo[2,3-b]pyridin-3-yl)propanamide probe addition and measured after 1 hr by fluorescence polarization assay). Details: not given.
Target sequence in this assay (Q92905 whole entry, the tested form may be a part, one chain of several): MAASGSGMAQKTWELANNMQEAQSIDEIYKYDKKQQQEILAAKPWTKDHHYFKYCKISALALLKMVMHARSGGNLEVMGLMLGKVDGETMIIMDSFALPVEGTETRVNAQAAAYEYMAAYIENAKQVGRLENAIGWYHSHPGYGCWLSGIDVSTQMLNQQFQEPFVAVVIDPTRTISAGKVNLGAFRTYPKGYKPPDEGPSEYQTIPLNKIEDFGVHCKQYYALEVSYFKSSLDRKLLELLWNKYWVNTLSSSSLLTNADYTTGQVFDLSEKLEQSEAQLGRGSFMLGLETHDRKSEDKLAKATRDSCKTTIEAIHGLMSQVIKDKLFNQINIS

Row | Compound | IC50 [µM]
7 | Cc1ccc(CCc2sc(N)nc2C(=O)O)o1 | 188
8 | CCCCc1sc(N)nc1C(=O)O | > 300
9 | CC(C)c1ccc(Cc2sc(N)nc2C(=O)O)cc1 | 111
10 | CC(C)(C)c1ccc(Cc2sc(N)nc2C(=O)O)cc1 | 92.1
11 | O=C1C=CC(=O)c2c(O)ccc(O)c21 [NAPHTHAZALIN] | 0.17
12 | CC(C)c1ccc(CC(C)c2sc(N)nc2C(=O)O)cc1 (stereo not drawn) | 13.5
13 | CC(C)Cc1sc(N)nc1C(=O)O | > 300
14 | CC(=O)O[C@H](CC=C(C)C)C1=CC(=O)c2c(O)ccc(O)c2C1=O [ACETYLSHIKONIN] | 0.43
15 | Nc1nc(C(=O)O)c(CCc2cccc3ccccc23)s1 | 30.3

Each compound was assayed on HCT-116 (assay: Upregulation of PD-L1 level in human HCT-116 cells at 30 uM by Western blot analysis). Details: not given.
Format: functional, cell-based

Row | Compound | Activity
16 | Cc1ccc(-c2[nH]c3ncccc3c2CCC(=O)N2CCOC[C@H]2c2nc3ccccc3[nH]2)c(-c2ccccc2)c1 | Active

Each compound was assayed on MDA-MB-231 (assay: Antiproliferative activity against human MDA-MB-231 cells assessed as inhibition of cell proliferation measured after 3 days by MTT assay). Details: MDA-MB-231, 72 h.
Format: functional, cell-based

Row | Compound | IC50 [µM]
17 | CC(C)c1ccc(CC(C)c2sc(N)nc2C(=O)O)cc1 (stereo not drawn) | 14
18 | Nc1nc(C(=O)O)c(CCc2cccc3ccccc23)s1 | 22.4

The compounds below were run against T1, COP9 signalosome complex subunit 5 (assay: Binding affinity to N-terminal His6-tagged CSN5 (2 to 257 residues) (unknown origin) transfected in Transetta cells assessed as decrease in tryptophan fluorescence intensity incubated for 10 mins by fluorescence quenching based microplate reader analysis). Details: dose 0-100 µM.
Format: cell-based
Target sequence in this assay (Q92905 2-334 limits assumed, one chain of several): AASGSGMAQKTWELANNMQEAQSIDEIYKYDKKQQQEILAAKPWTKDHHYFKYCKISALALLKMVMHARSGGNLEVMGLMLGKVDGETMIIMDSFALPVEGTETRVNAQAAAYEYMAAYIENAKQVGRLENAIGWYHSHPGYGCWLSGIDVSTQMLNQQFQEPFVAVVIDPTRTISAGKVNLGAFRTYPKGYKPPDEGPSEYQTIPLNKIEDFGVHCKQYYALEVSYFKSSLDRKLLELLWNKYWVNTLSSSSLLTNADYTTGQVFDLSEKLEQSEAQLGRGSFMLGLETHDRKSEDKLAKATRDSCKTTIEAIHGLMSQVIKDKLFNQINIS

Row | Compound | Activity
19 | CC(C)c1ccc(CC(C)c2sc(N)nc2C(=O)O)cc1 (stereo not drawn) | Dose-Dependent Effect

What follows are compounds tested on HCT-116 (assay: Upregulation of PD-L1 protein expression in human HCT-116 cells at 30 uM by Western blot analysis). Details: not given.
Format: functional, cell-based

Row | Compound | Activity
20 | Cc1ccc(-c2[nH]c3ncccc3c2CCC(=O)N2CCOC[C@H]2c2nc3ccccc3[nH]2)c(-c2ccccc2)c1 | Active

What follows are compounds tested on HepG2 (assay: Antiproliferative activity against human HepG2 cells assessed as inhibition of cell proliferation measured after 3 days by MTT assay). Details: HepG2, 72 h.
Format: functional, cell-based

Row | Compound | IC50 [µM]
21 | O=C1C=CC(=O)c2c(O)ccc(O)c21 [NAPHTHAZALIN] | 4.97
22 | CC(C)c1ccc(CC(C)c2sc(N)nc2C(=O)O)cc1 (stereo not drawn) | 37.3
23 | CC(=O)O[C@H](CC=C(C)C)C1=CC(=O)c2c(O)ccc(O)c2C1=O [ACETYLSHIKONIN] | 6.48
24 | Nc1nc(C(=O)O)c(CCc2cccc3ccccc23)s1 | 30.8

What follows are compounds tested against T1, COP9 signalosome complex subunit 5 (assay: as §1, with “based microplate reader” for “polarization”). Details: not given.
Format: cell-based
Target sequence in this assay (Q92905 whole entry, the tested form may be a part, one chain of several): as the sequence (Q92905 whole entry, the tested form may be a part, one chain of several) above

Row | Compound | IC50 [µM]
25 | Cc1ccc(CCc2sc(N)nc2C(=O)O)o1 | 163
26 | CCCCc1sc(N)nc1C(=O)O | > 300
27 | CC(C)c1ccc(Cc2sc(N)nc2C(=O)O)cc1 | 80.1
28 | CC(C)(C)c1ccc(Cc2sc(N)nc2C(=O)O)cc1 | 83.2
29 | O=C1C=CC(=O)c2c(O)ccc(O)c21 [NAPHTHAZALIN] | 0.91
30 | CC(C)c1ccc(CC(C)c2sc(N)nc2C(=O)O)cc1 (stereo not drawn) | 14.9
31 | CC(C)Cc1sc(N)nc1C(=O)O | > 300
32 | CC(=O)O[C@H](CC=C(C)C)C1=CC(=O)c2c(O)ccc(O)c2C1=O [ACETYLSHIKONIN] | 1.07
33 | Nc1nc(C(=O)O)c(CCc2cccc3ccccc23)s1 | 28.3
